In patent publication US20040049056A1 (priority 2000, published 2004):

tested on: Pyricularia oryzae; assay: not given; type: cell-based; settings: not given

| SMILES | Rate of growth suppression (%) P.o |
| --- | --- |
| Oc1ccc(O)c(OCc2ccccc2)c1 [Compound (a), 2-benzyloxy-1,4-hydroquinone] | ++ (key: −: less than 10%; +: 10 to 60%; ++: more than 60%) |
| O=Cc1cc2c(cc1O)OCO2 [Compound (d), 4,5-methylenedioxysalicylaldehyde] | + (key: −: less than 10%; +: 10 to 60%; ++: more than 60%) |

same assay, conditions: 10 mg/L, 3 DAT

| SMILES | Rate of growth suppression (%) P.o |
| --- | --- |
| O=Cc1cc(O)c(OCc2ccccc2)cc1O [Compound (b), 2,5-dihydroxy-4-benzyloxybenzaldehyde] | + (10 to 60%) |
| CC(=O)Oc1cc(OCc2ccccc2)c(OC(C)=O)cc1C=O [Compound (c), 2,5-diacetoxy-4-benzyloxybenzaldehyde] | + (10 to 60%) |
| CC1(C)Oc2cc(O)c(C=O)cc2O1 [Compound (e), 2,2-dimethyl-5-formyl-6-hydroxy-1,3-benzodioxol] | + (10 to 60%) |

tested on: Fusarium nivale; assay: not given; type: cell-based; settings: not given

| SMILES | Rate of growth suppression (%) F.niv |
| --- | --- |
| Oc1ccc(O)c(OCc2ccccc2)c1 [Compound (a), 2-benzyloxy-1,4-hydroquinone] | + (key: −: less than 10%; +: 10 to 60%; ++: more than 60%) |
| O=Cc1cc(O)c(OCc2ccccc2)cc1O [Compound (b), 2,5-dihydroxy-4-benzyloxybenzaldehyde] | ++ (key: −: less than 10%; +: 10 to 60%; ++: more than 60%) |
| CC(=O)Oc1cc(OCc2ccccc2)c(OC(C)=O)cc1C=O [Compound (c), 2,5-diacetoxy-4-benzyloxybenzaldehyde] | ++ (key: −: less than 10%; +: 10 to 60%; ++: more than 60%) |
| O=Cc1cc2c(cc1O)OCO2 [Compound (d), 4,5-methylenedioxysalicylaldehyde] | + (key: −: less than 10%; +: 10 to 60%; ++: more than 60%) |
| CC1(C)Oc2cc(O)c(C=O)cc2O1 [Compound (e), 2,2-dimethyl-5-formyl-6-hydroxy-1,3-benzodioxol] | + (key: −: less than 10%; +: 10 to 60%; ++: more than 60%) |

tested on: Septoria tritici; assay: not given; type: cell-based; settings: not given

| SMILES | Rate of growth suppression (%) S.t |
| --- | --- |
| Oc1ccc(O)c(OCc2ccccc2)c1 [Compound (a), 2-benzyloxy-1,4-hydroquinone] | + (key: −: less than 10%; +: 10 to 60%; ++: more than 60%) |
| O=Cc1cc(O)c(OCc2ccccc2)cc1O [Compound (b), 2,5-dihydroxy-4-benzyloxybenzaldehyde] | + (key: −: less than 10%; +: 10 to 60%; ++: more than 60%) |
| CC(=O)Oc1cc(OCc2ccccc2)c(OC(C)=O)cc1C=O [Compound (c), 2,5-diacetoxy-4-benzyloxybenzaldehyde] | ++ (key: −: less than 10%; +: 10 to 60%; ++: more than 60%) |
| O=Cc1cc2c(cc1O)OCO2 [Compound (d), 4,5-methylenedioxysalicylaldehyde] | + (key: −: less than 10%; +: 10 to 60%; ++: more than 60%) |
| CC1(C)Oc2cc(O)c(C=O)cc2O1 [Compound (e), 2,2-dimethyl-5-formyl-6-hydroxy-1,3-benzodioxol] | + (key: −: less than 10%; +: 10 to 60%; ++: more than 60%) |

tested on: Pythium aphanidermatum; assay: not given; type: cell-based; settings: not given

| SMILES | Rate of growth suppression (%) P.a |
| --- | --- |
| Oc1ccc(O)c(OCc2ccccc2)c1 [Compound (a), 2-benzyloxy-1,4-hydroquinone] | + (key: −: less than 10%; +: 10 to 60%; ++: more than 60%) |
| O=Cc1cc(O)c(OCc2ccccc2)cc1O [Compound (b), 2,5-dihydroxy-4-benzyloxybenzaldehyde] | ++ (key: −: less than 10%; +: 10 to 60%; ++: more than 60%) |
| CC(=O)Oc1cc(OCc2ccccc2)c(OC(C)=O)cc1C=O [Compound (c), 2,5-diacetoxy-4-benzyloxybenzaldehyde] | + (key: −: less than 10%; +: 10 to 60%; ++: more than 60%) |
| O=Cc1cc2c(cc1O)OCO2 [Compound (d), 4,5-methylenedioxysalicylaldehyde] | + (key: −: less than 10%; +: 10 to 60%; ++: more than 60%) |
| CC1(C)Oc2cc(O)c(C=O)cc2O1 [Compound (e), 2,2-dimethyl-5-formyl-6-hydroxy-1,3-benzodioxol] | + (key: −: less than 10%; +: 10 to 60%; ++: more than 60%) |

tested on: Pytophthora infestans; assay: not given; type: cell-based; settings: not given

| SMILES | Rate of growth suppression (%) P.i |
| --- | --- |
| Oc1ccc(O)c(OCc2ccccc2)c1 [Compound (a), 2-benzyloxy-1,4-hydroquinone] | + (key: −: less than 10%; +: 10 to 60%; ++: more than 60%) |
| O=Cc1cc2c(cc1O)OCO2 [Compound (d), 4,5-methylenedioxysalicylaldehyde] | + (key: −: less than 10%; +: 10 to 60%; ++: more than 60%) |

same assay, conditions: 10 mg/L, 4 DAT

| SMILES | Rate of growth suppression (%) P.i |
| --- | --- |
| O=Cc1cc(O)c(OCc2ccccc2)cc1O [Compound (b), 2,5-dihydroxy-4-benzyloxybenzaldehyde] | + (10 to 60%) |
| CC(=O)Oc1cc(OCc2ccccc2)c(OC(C)=O)cc1C=O [Compound (c), 2,5-diacetoxy-4-benzyloxybenzaldehyde] | + (10 to 60%) |
| CC1(C)Oc2cc(O)c(C=O)cc2O1 [Compound (e), 2,2-dimethyl-5-formyl-6-hydroxy-1,3-benzodioxol] | + (10 to 60%) |

tested on: plant pathogenic fungi; assay: Assay for antifungal activity of esculetin compounds (method similar to Assay example 1); type: cell-based; settings: not given
Description: The activities of the following esculetin compounds was confirmed by a method similar to Assay example 1.

| SMILES | Antifungal activity |
| --- | --- |
| O=c1ccc2cc(O)c(OCc3ccccc3)cc2o1 [7-benzyloxy-6-hydroxycoumarin] | confirmed |
| CC1(C)Oc2cc3ccc(=O)oc3cc2O1 [esculetin acetonide] | confirmed |
| O=c1ccc2cc3c(cc2o1)OCO3 [methylenedioxycoumarin] | confirmed |

tested on: plants; assay: Assay for herbicidal activity of esculetin compounds (method similar to Assay example 2); type: in vivo; settings: not given
Description: The activities of the following esculetin compounds was confirmed by a method similar to Assay example 2.

| SMILES | Herbicidal activity |
| --- | --- |
| O=c1ccc2cc(O)c(OCc3ccccc3)cc2o1 [7-benzyloxy-6-hydroxycoumarin] | confirmed |
| CC1(C)Oc2cc3ccc(=O)oc3cc2O1 [esculetin acetonide] | confirmed |
| O=c1ccc2cc3c(cc2o1)OCO3 [methylenedioxycoumarin] | confirmed |

tested on: not given; assay: not given; settings: not given

| SMILES | melting point [°C] |
| --- | --- |
| O=Cc1cc2c(cc1O)OCO2 [Compound (d), 4,5-methylenedioxysalicylaldehyde] | 125 to 126 |
| CC1(C)Oc2cc(O)c(C=O)cc2O1 [Compound (e), 2,2-dimethyl-5-formyl-6-hydroxy-1,3-benzodioxol] | 104 to 105 |
